From US11883447B2, “Methods and probiotic compositions for the treatment of metabolic diseases and disorders” (Research Development Foundation, priority 2019, dated 2024)

Columns and labels:
[1] = system: bacterial mix from mouse fecal samples; test: Growth of bacterial mix from fresh mouse fecal content in media with polyamines; format: cell-based; details: in vitro, various concentrations; exponential growth phase
Source text: (§1) The inventors next investigated whether culturing several bacteria with beneficial metabolic effects can be affected by presence of polyamines in the growth media. […] To further address whether the general growth of bacteria present in fresh fecal samples is affected, we inoculated fresh mouse fecal content in a growth media supplemented with various concentrations of spermine or spermidine.

Lactobacillus Reuteri = test: Bacterial growth in media supplemented with polyamines; format: cell-based; details: in vitro, various concentrations in growth media
Source text: as §1

[2] = system: Parabacteroides goldsteinii; test: as above; format: cell-based; details: in vitro, various concentrations in growth media
Source text: as §1

Lactobacillus Gaseri = test: as above; format: cell-based; details: in vitro, various concentrations in growth media
Source text: as §1

ovariectomized mice [3] = test: Oral glucose tolerance test (OGTT) in ovariectomized mice gavaged with bacteria; format: in vivo; details: oral gavage every second day
Protocol: (§2) Ovariectomy: Mice were anesthetised with Xylazin/Ketamin (injection of 120 μl of a mixture of 120 mg/kg ketamine and 16 mg/kg xylazine) and shaved below the ribs on the back side. Betadine was applied to the area for appropriate disinfection. After a 1-2 cm incision through the skin and the muscle layer just below the ribs, the ovary was localized, the fallopian tube ligated with dissolving suture and the ovary removed. The muscle layer was sutured with dissolving suture, the wound closed with staples and disinfected. The same procedure was performed on the other side. A dose of Tamgesic was administered 4 hours after the surgery, and the staples were removed 7 days after the surgery under isoflurane anaesthesia. The sham-operated animals underwent the same procedure, without ligating the fallopian tube and the ovary excision.
(§3) Single microbe transplantation: Lactobacillus Gasseri (DSM 20604) and Parabacteroides Goldsteinii (DSM 19948) were purchased from DSMZ. Lactobacillus reuteri (PTA-6475) and Akkermansia Muciniphila (BAA835) was purchased from ATCC. […]
(§4) Metabolic Experiments: Oral glucose tolerance tests (OGTT) were performed after 10 hr overnight fasting by oral gavage of glucose bolus ([…] body weight). […] Insulin level during the OGTT was measured with the Mouse Insulin ELISA kit (ref. 10-1247-01, Mercodia), following the manufacturer's instructions.

ovariectomized mice [4] = test: Insulin tolerance test in ovariectomized mice gavaged with bacteria; format: in vivo; details: 0.5 U/kg insulin, glycemia over 2 h
Protocol: as §2, §3, §4

| Compound | Optical density of fecal bacterial mix [1] | Growth of Lactobacillus Reuteri (Lactobacillus Reuteri) | Growth of Parabacteroides goldsteinii [2] | Growth of Lactobacillus Gaseri (Lactobacillus Gaseri) | Oral glucose tolerance (ovariectomized mice [3]) | Insulin sensitivity (insulin tolerance test) (ovariectomized mice [4]) |
| --- | --- | --- | --- | --- | --- | --- |
| NCCCCNCCCN [spermidine] | increased the optical density during the exponential growth phase | increased the growth | increased the growth | increased the growth |  |  |
| NCCCNCCCCNCCCN [spermine, N, N′-bis (3-aminopropyl)-1,4-butane diamine] | increased the optical density during the exponential growth phase | increased the growth | increased the growth | increased the growth |  |  |
| Lactobacillus Reuteri |  |  |  |  | improved | improved |
